Data reported in ChEMBL document CHEMBL4680211, “Synthesis and structure-activity relationship study of water-soluble carbazole sulfonamide derivatives as new anticancer agents” (Eur J Med Chem, 2020).
pIC50: −log10 of the molar value.

Assays:
HepG2 [1] = assay: Antiproliferative activity against human HepG2 cells measured after 48 hrs by SRB assay; assay type: functional, cell-based; conditions: Homo sapiens, HepG2, 48 h
Bel-7402 = assay: Antiproliferative activity against human Bel-7402 cells measured after 48 hrs by SRB assay; assay type: functional, cell-based; conditions: Homo sapiens, Bel-7402, 48 h
MCF7 = assay: Antiproliferative activity against human MCF7 cells measured after 48 hrs by SRB assay; assay type: functional, cell-based; conditions: Homo sapiens, MCF7, 48 h
[2] = Acute toxicity in Kunming mouse assessed as survival at 100 mg/kg, iv measured for 7 days relative to control; assay type: organism-based; conditions: in vivo, time 7 day
[3] = Acute toxicity in Kunming mouse assessed as survival at 80 mg/kg, iv measured for 7 days relative to control; assay type: organism-based; conditions: in vivo, time 7 day
[4] = Acute toxicity in Kunming mouse assessed as survival at 60 mg/kg, iv measured for 7 days relative to control; assay type: organism-based; conditions: in vivo, time 7 day
[5] = Acute toxicity in Kunming mouse assessed as survival at 40 mg/kg, iv measured for 7 days relative to control; assay type: organism-based; conditions: in vivo, time 7 day
[6] = Acute toxicity in iv dosed Kunming mouse measured for 7 days; assay type: organism-based; conditions: in vivo, time 7 day
HepG2 [7] = assay: Antitumor activity against human HepG2 cells xenografted in BALB/c nude mouse assessed as tumor volume at 10 mg/kg, iv qod for 14 to 29 days measured on day 1 (reference value: 154.04 +/- 3120); assay type: functional; conditions: time 14-29 day
HepG2 [8] = assay: Antitumor activity against human HepG2 cells xenografted in BALB/c nude mouse assessed as tumor volume at 10 mg/kg, iv qod for 14 to 29 days measured on day 29 (reference value: 2,838.93 +/- 737.40); assay type: functional; conditions: time 14-29 day
HepG2 [9] = assay: Antitumor activity against human HepG2 cells xenografted in BALB/c nude mouse assessed as tumor growth inhibition at 10 mg/kg, iv qod for 14 to 29 days relative to control; assay type: functional; conditions: time 14-29 day, read-out: TGI
[10] = Toxicity in human HepG2 cells xenografted BALB/c nude mouse assessed as change in tumor weight at 10 mg/kg, iv qod for 14 to 29 days (reference value: 4.52 g); assay type: organism-based; conditions: in vivo, time 14-29 day
HepG2 [11] = assay: Antitumor activity against human HepG2 cells xenografted in BALB/c nude mouse assessed as tumor growth inhibition at 5 mg/kg, iv qod for 14 to 29 days relative to control; assay type: functional; conditions: time 14-29 day, read-out: TGI
HepG2 [12] = assay: Antitumor activity against GFP-labelled human HepG2 cells xenografted in BALB/c nude mouse assessed as tumor growth inhibition at 10 mg/kg, iv qod for 29 days relative to control; assay type: functional; conditions: 696 h, time 29 day, read-out: TGI
[13] = Toxicity in GFP-labelled human HepG2 cells xenografted BALB/c nude mouse assessed as change in animal weight at 10 mg/kg, iv qod for 29 days; assay type: organism-based; conditions: in vivo, 696 h, time 29 day
MDA-MB-231 = assay: Antitumor activity against human MDA-MB-231 cells xenografted in BALB/c nude mouse assessed as reduction in tumor burden at 60 mg/kg, ip biw for 14 to 29 days relative to control; assay type: functional; set-up: scale not given: the % may be the effect or the level left; conditions: time 14-29 day
[14] = Toxicity in human MDA-MB-231 cells xenografted BALB/c nude mouse assessed as effect on body weight at 60 mg/kg, ip biw for 14 to 29 days measured every two days during compound dosing; assay type: organism-based; conditions: in vivo, time 14-29 day
HepG2 [15] = assay: Antitumor activity against GFP-labelled human HepG2 cells xenografted in BALB/c nude mouse assessed as tumor growth inhibition at 10 mg/kg, iv administered once per week for 29 days relative to control; assay type: functional; conditions: 696 h, time 29 day, read-out: TGI
[16] = Toxicity in GFP-labelled human HepG2 cells xenografted BALB/c nude mouse assessed as change in animal weight at 10 mg/kg, iv administered once per week for 29 days; assay type: organism-based; conditions: in vivo, 696 h, time 29 day
HepG2 [17] = assay: Antitumor activity against human HepG2 cells xenografted in BALB/c nude mouse assessed as tumor growth inhibition at 10 mg/kg, iv administered once per week for 29 days by caliper method relative to control; assay type: functional; set-up: scale not given: the % may be the effect or the level left; conditions: time 29 day
HepG2 [18] = assay: Antitumor activity against human HepG2 cells xenografted in iv dosed BALB/c nude mouse assessed as tumor growth inhibition administered every other day for 14 to 29 days; assay type: functional, organism-based; conditions: time 14-29 day
[19] = Aqueous solubility of compound in water at pH 7.4 incubated at 20 degC by HPLC-UV analysis; assay type: physicochemical
HepG2 [20] = assay: Antitumor activity against human HepG2 cells xenografted in BALB/c nude mouse assessed as reduction in tumor volume administered for 29 days by caliper method; assay type: functional, cell-based; conditions: time 29.0 day
HepG2 [21] = assay: Antitumor activity against human HepG2 cells xenografted in BALB/c nude mouse assessed as tumor growth inhibition at 50 mg/kg, iv qod for 14 to 29 days relative to control; assay type: functional; conditions: time 14-29 day, read-out: TGI
[22] = Acute toxicity in ip dosed Kunming mouse measured for 7 days; assay type: organism-based; conditions: in vivo, time 7 day
HepG2 [23] = assay: Antitumor activity against human HepG2 cells xenografted in BALB/c nude mouse assessed as tumor growth inhibition at 25 mg/kg, ip qod for 29 days by caliper method relative to control; assay type: functional; conditions: 696 h, time 29 day, read-out: TGI
[24] = Elimination half life in Sprague-Dawley rat at 2.5 mg/kg, iv; assay type: ADME, organism-based; conditions: in vivo, read-out: beta t1/2 (converted)
[25] = Volume of distribution at steady state in Sprague-Dawley rat at 2.5 mg/kg, iv; assay type: ADME, organism-based; conditions: in vivo, read-out: Vdss
[26] = AUC (0 to last) in Sprague-Dawley rat at 2.5 mg/kg, iv; assay type: ADME, organism-based; set-up: time 0 - last, route intravenous, dose 2.5 mg/kg; conditions: in vivo
[27] = MRT (0 to last) in Sprague-Dawley rat at 2.5 mg/kg, iv; assay type: ADME, organism-based; conditions: in vivo
[28] = Acute toxicity in po dosed Kunming mouse measured for 7 days; assay type: organism-based; conditions: in vivo, time 7 day
HepG2 [29] = assay: Antitumor activity against human HepG2 cells xenografted in BALB/c nude mouse assessed as reduction in tumor volume at 50 mg/kg administered for 29 days by caliper method relative to control; assay type: functional; set-up: scale not given: the % may be the effect or the level left; conditions: time 29 day
HepG2 [30] = assay: Antitumor activity against human HepG2 cells xenografted in BALB/c nude mouse assessed as reduction in tumor volume at 100 mg/kg administered for 29 days by caliper method relative to control; assay type: functional; set-up: scale not given: the % may be the effect or the level left; conditions: time 29 day
[31] = Toxicity in human HepG2 cells xenografted BALB/c nude mouse assessed as change in tumor weight at 50 to 100 mg/kg for 29 days; assay type: organism-based; conditions: in vivo, 696 h, dose 50-100 mg/kg, time 29 day

## COc1ccc(N(CCN2CCN(C)CC2)S(=O)(=O)c2ccc3c(c2)c2ccccc2n3C)c(OC)n1 [listing 1 of 2 here]
HepG2 [1]
  pIC50: 5.38
Bel-7402
  pIC50: 5.22
MCF7
  pIC50: 4.82
[2]
  survival at 168 h: 16.7%
[3]
  survival at 168 h: 83.3%
[4]
  survival at 168 h: 100%
[5]
  survival at 168 h: 100%
[6]
  LD50 at 168 h: 89.5 mg/kg
HepG2 [7]
  Activity: 92.29 mm3
HepG2 [8]
  Activity: 914.19 mm3
HepG2 [9]
  inhibition in vivo at 10 mg/kg: 48.3%
[10]
  Activity: 1.44 g
HepG2 [11]
  inhibition in vivo at 5 mg/kg: 33.3%
HepG2 [12]
  inhibition in vivo at 10 mg/kg: 60.2%
[13]
  Activity: Non-Toxic

## CC(=O)O[C@H]1C(=O)[C@@]2(C)[C@H]([C@H](OC(=O)c3ccccc3)[C@]3(O)C[C@H](OC(=O)[C@H](O)[C@@H](NC(=O)c4ccccc4)c4ccccc4)C(C)=C1C3(C)C)[C@]1(OC(C)=O)CO[C@@H]1C[C@@H]2O [PACLITAXEL]
MDA-MB-231
  Activity: 36%
[14]
  Activity: Non-Toxic
HepG2 [15]
  inhibition in vivo at 10 mg/kg: 99.4%
[16]
  Activity: Non-Toxic
HepG2 [17]
  Activity: 59.6%

## COc1ccc(N(CCN2CCN(C)CC2)S(=O)(=O)c2ccc3c(c2)c2ccccc2n3C)c(OC)n1 [listing 2 of 2 here]
HepG2 [18]
  TGI: Dose-dependent effect

## COc1ccc(N(CCO)S(=O)(=O)c2ccc3c(c2)c2ccccc2n3C)c(OC)n1.Cl
[19]
  solubility: 0.15 mg/mL

## COc1ccc(N(CCOP(=O)(O)O)S(=O)(=O)c2ccc3c(c2)c2ccccc2n3C)c(OC)n1
HepG2 [20]
  Activity: Dose-dependent effect

## COc1ccc(N(CCCN2CCC3(CCN(C)CC3)C2)S(=O)(=O)c2ccc3c(c2)c2ccccc2n3C)c(OC)n1.Cl
[19]
  solubility: > 30 mg/mL

## COc1ccc(N(CCOC(N)=O)S(=O)(=O)c2ccc3c(c2)c2ccccc2n3C)c(OC)n1.Cl
[19]
  solubility: 0.47 mg/mL

## COc1ccc(N(C(=O)CCN2CCN(C)CC2)S(=O)(=O)c2ccc3c(c2)c2ccccc2n3C)c(OC)n1.Cl
[19]
  solubility: 17.6 mg/mL

## COc1ccc(N(CCCN(C)C)S(=O)(=O)c2ccc3c(c2)c2ccccc2n3C)c(OC)n1.Cl
[19]
  solubility: 20.5 mg/mL

## COc1ccc(/C=C\c2cc(OC)c(OC)c(OC)c2)cc1OP(=O)(O)O [FOSBRETABULIN DISODIUM]
HepG2 [1]
  pIC50: 8.70
Bel-7402
  pIC50: 7.40
MCF7
  pIC50: 7.96
HepG2 [21]
  inhibition in vivo at 50 mg/kg: 45.8%

## COc1ccc(NS(=O)(=O)c2ccc3c(c2)c2ccc(OP(=O)([O-])[O-])cc2n3C)c(OC)n1.[Na+].[Na+]
HepG2 [1]
  pIC50: 7.72
Bel-7402
  pIC50: 7.22
MCF7
  pIC50: 7.80
[22]
  LD50 at 168 h: 273 mg/kg
HepG2 [23]
  inhibition in vivo at 25 mg/kg: 71.7%
[24]
  half-life: 43.2 min
[25]
  Vd: 0.24 L/kg
[26]
  AUClast: 18449 ng·h/mL
[27]
  MRT last: 10.2 min

## COc1ccc(N(CCn2ccnc2)S(=O)(=O)c2ccc3c(c2)c2ccccc2n3C)c(OC)n1.Cl
[19]
  solubility: 21.5 mg/mL

## COc1ccc(NS(=O)(=O)c2ccc3c(c2)c2ccc(OP(=O)([O-])[O-])cc2n3C)c(OC)n1.Cl.[Na+].[Na+]
[19]
  solubility: > 30 mg/mL

## COc1ccc(N(CCOP(=O)(O)O)S(=O)(=O)c2ccc3c(c2)c2ccccc2n3C)c(OC)n1.Cl
[19]
  solubility: 1.75 mg/mL

## COc1ccc(N(CCOP(=O)([O-])[O-])S(=O)(=O)c2ccc3c(c2)c2ccccc2n3C)c(OC)n1.[Na+].[Na+]
HepG2 [1]
  pIC50: 5.95
Bel-7402
  pIC50: 5.71
MCF7
  pIC50: 5.97
[28]
  LD50 at 168 h: 273 mg/kg
HepG2 [29]
  Activity: 54.5%
HepG2 [30]
  Activity: 70.1%
[31]
  Activity: Non-Toxic
